Reference: ChEMBL document CHEMBL5537115, “New broad-spectrum and potent antibacterial agents with dual-targeting mechanism: Promoting FtsZ polymerization and disrupting bacterial membranes” (Eur J Med Chem, 2024)

Legend:
Type in all cases: functional
Streptococcus pyogenes [1] = assay: Antibacterial activity against erythromycin-resistant Streptococcus pyogenes 2 clinical isolate assessed as bacterial growth inhibition incubated for 20 hrs by CLSI based broth microdilution method
[2] = test system: Staphylococcus epidermidis; assay: Antibacterial activity against penicillin-resistant Staphylococcus epidermidis clinical isolate assessed as bacterial growth inhibition incubated for 20 hrs by CLSI based broth microdilution method
Staphylococcus aureus [3] = assay: Antibacterial activity against Staphylococcus aureus clinical isolate assessed as bacterial growth inhibition incubated for 20 hrs by CLSI based broth microdilution method
Staphylococcus aureus [4] = assay: Antibacterial activity against penicillin-resistant Staphylococcus aureus ATCC31007 assessed as bacterial growth inhibition incubated for 20 hrs by CLSI based broth microdilution method
Staphylococcus aureus [5] = assay: Antibacterial activity against methicillin-resistant Staphylococcus aureus ATCC43300 assessed as bacterial growth inhibition incubated for 20 hrs by CLSI based broth microdilution method
Klebsiella pneumoniae = assay: Antibacterial activity against Klebsiella pneumoniae ATCC BAA-1902 assessed as bacterial growth inhibition incubated for 20 hrs by CLSI based broth microdilution method
Acinetobacter baumannii = assay: Antibacterial activity against Acinetobacter baumannii ATCC19606 assessed as bacterial growth inhibition incubated for 20 hrs by CLSI based broth microdilution method
Escherichia coli [6] = assay: Antibacterial activity against wild-type Escherichia coli BW25113 assessed as bacterial growth inhibition incubated for 20 hrs by CLSI based broth microdilution method
Escherichia coli [7] = assay: Antibacterial activity against penicillin-susceptible Escherichia coli ATCC25922 assessed as bacterial growth inhibition incubated for 20 hrs by CLSI based broth microdilution method
Enterococcus faecium [8] = assay: Antibacterial activity against vancomycin-susceptible Enterococcus faecium ATCC19434 assessed as bacterial growth inhibition incubated for 20 hrs by CLSI based broth microdilution method
Enterococcus faecalis [9] = assay: Antibacterial activity against vancomycin-susceptible Enterococcus faecalis ATCC29212 assessed as bacterial growth inhibition incubated for 20 hrs by CLSI based broth microdilution method
Streptococcus pyogenes [10] = assay: Antibacterial activity against erythromycin-susceptible Streptococcus pyogenes 1 assessed as bacterial growth inhibition incubated for 20 hrs by CLSI based broth microdilution method
Staphylococcus aureus [11] = assay: Antibacterial activity against erythromycin-susceptible Staphylococcus aureus ATCC25923 assessed as bacterial growth inhibition incubated for 20 hrs by CLSI based broth microdilution method
Bacillus pumilus = assay: Antibacterial activity against penicillin-susceptible Bacillus pumilus CMCC63202 assessed as bacterial growth inhibition incubated for 20 hrs by CLSI based broth microdilution method
Bacillus subtilis = assay: Antibacterial activity against penicillin-susceptible Bacillus subtilis ATCC9372 assessed as bacterial growth inhibition incubated for 20 hrs by CLSI based broth microdilution method
Enterococcus faecalis [12] = assay: Antibacterial activity against vancomycin-resistant Enterococcus faecalis ATCC51299 assessed as bacterial growth inhibition incubated for 20 hrs by CLSI based broth microdilution method
Enterococcus faecium [13] = assay: Antibacterial activity against vancomycin-resistant Enterococcus faecium ATCC51559 assessed as bacterial growth inhibition incubated for 20 hrs by CLSI based broth microdilution method

SMILES	MIC (Streptococcus pyogenes [1])	MIC [2]	MIC (Staphylococcus aureus [3])	MIC (Staphylococcus aureus [4])	MIC (Staphylococcus aureus [5])	MIC (Klebsiella pneumoniae)	MIC (Acinetobacter baumannii)	MIC (Escherichia coli [6])	MIC (Escherichia coli [7])	MIC (Enterococcus faecium [8])	MIC (Enterococcus faecalis [9])	MIC (Streptococcus pyogenes [10])	MIC (Staphylococcus aureus [11])	MIC (Bacillus pumilus)	MIC (Bacillus subtilis)	MIC (Enterococcus faecalis [12])	MIC (Enterococcus faecium [13])
C[n+]1cc(-c2ccccc2)c(/C=C/c2ccc(N3CCCCC3)cc2)cc1-c1ccc(C(C)(C)C)cc1.[I-]	2 µg/mL	1 µg/mL	0.5 µg/mL	0.25 µg/mL	1 µg/mL	8 µg/mL	1 µg/mL	4 µg/mL	64 µg/mL	1 µg/mL	1 µg/mL	0.5 µg/mL	0.25 µg/mL	0.125 µg/mL	0.5 µg/mL	2 µg/mL	1 µg/mL
C[n+]1cc(-c2ccccc2)c(/C=C/c2ccc(N)cc2)cc1-c1ccc(C(C)(C)C)cc1.[I-]	2 µg/mL	4 µg/mL	0.25 µg/mL	2 µg/mL	0.5 µg/mL	16 µg/mL	4 µg/mL	32 µg/mL	16 µg/mL	4 µg/mL	4 µg/mL	4 µg/mL	0.125 µg/mL	2 µg/mL	0.5 µg/mL	4 µg/mL	4 µg/mL
C[n+]1cc(-c2ccccc2)c(/C=C/c2ccc(N)cc2)cc1-c1ccccc1.[I-]	16 µg/mL	32 µg/mL	16 µg/mL	64 µg/mL	16 µg/mL	> 64 µg/mL	32 µg/mL	> 64 µg/mL	> 64 µg/mL	> 64 µg/mL	64 µg/mL	4 µg/mL	2 µg/mL	16 µg/mL	4 µg/mL	> 64 µg/mL	64 µg/mL
COc1ccc(/C=C/c2cc(-c3ccccc3)c[n+](C)c2-c2ccccc2)cc1.[I-]	8 µg/mL	2 µg/mL	4 µg/mL	64 µg/mL	16 µg/mL	> 64 µg/mL	32 µg/mL	> 64 µg/mL	> 64 µg/mL	64 µg/mL	32 µg/mL	4 µg/mL	2 µg/mL	32 µg/mL	8 µg/mL	64 µg/mL	64 µg/mL
C[n+]1cc(-c2ccccc2)cc(/C=C/c2ccc(Br)cc2)c1-c1ccccc1.[I-]	4 µg/mL	8 µg/mL	2 µg/mL	16 µg/mL	4 µg/mL	64 µg/mL	8 µg/mL	> 64 µg/mL	64 µg/mL	16 µg/mL	16 µg/mL	4 µg/mL	1 µg/mL	8 µg/mL	2 µg/mL	16 µg/mL	16 µg/mL
C[n+]1cc(-c2ccccc2)cc(/C=C/c2ccc(C(C)(C)C)cc2)c1-c1ccccc1.[I-]	2 µg/mL	2 µg/mL	2 µg/mL	4 µg/mL	1 µg/mL	32 µg/mL	4 µg/mL	16 µg/mL	16 µg/mL	2 µg/mL	4 µg/mL	8 µg/mL	0.25 µg/mL	2 µg/mL	0.5 µg/mL	1 µg/mL	2 µg/mL
CC(C)c1ccc(/C=C/c2cc(-c3ccc(C(C)(C)C)cc3)[n+](C)cc2-c2ccccc2)cc1.[I-]	2 µg/mL	1 µg/mL	0.5 µg/mL	1 µg/mL	0.25 µg/mL	8 µg/mL	1 µg/mL	4 µg/mL	2 µg/mL	1 µg/mL	1 µg/mL	4 µg/mL	0.125 µg/mL	0.25 µg/mL	0.125 µg/mL	0.5 µg/mL	1 µg/mL
C[n+]1cc(-c2ccccc2)cc(/C=C/c2ccc(Cl)cc2)c1-c1ccccc1.[I-]	4 µg/mL	8 µg/mL	2 µg/mL	16 µg/mL	4 µg/mL	> 64 µg/mL	8 µg/mL	> 64 µg/mL	64 µg/mL	16 µg/mL	16 µg/mL	4 µg/mL	2 µg/mL	8 µg/mL	4 µg/mL	16 µg/mL	16 µg/mL
